From US4684664A, “Derivatives of β-(4-isocyano-1,2,3,4-diepoxycyclopentyl) acrylic acid” (Kureha Kagaku Kogyo Kabushiki Kaisha, priority 1984, dated 1987)
Values after ≈ are worked out from the molar mass of the structure shown.

Assays:
Type in all cases: cell-based
[1] = test system: Proteus mirabilis IFO 3849; experiment: Antibacterial activity, agar-dilution MIC, organism No. 19; conditions: Proteus mirabilis, IFO3849; Organism No. 19, bouillon-agar; read-out: Minimum Inhibitory Concentration
Summary of the method: (§1)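 Dilution in agar (bouillon-agar base) is the format; activity is expressed as MIC, μg per ml medium.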

[2] = test system: Proteus rettgeri IFO 3850; experiment: Antibacterial activity, agar-dilution MIC, organism No. 22; conditions: Providencia rettgeri, IFO3850; Organism No. 22, bouillon-agar; read-out: Minimum Inhibitory Concentration
Summary of the method: as §1

Proteus vulgaris OX-19 = experiment: Antibacterial activity, agar-dilution MIC, organism No. 20; conditions: Proteus vulgaris, OX19; Organism No. 20, bouillon-agar; read-out: Minimum Inhibitory Concentration
Summary of the method: as §1

[3] = test system: Bacillus subtilis ATCC 6633; experiment: Antibacterial activity, agar-dilution MIC, organism No. 14; conditions: Bacillus subtilis, ATCC6633; Organism No. 14, bouillon-agar; read-out: Minimum Inhibitory Concentration
Summary of the method: as §1

[4] = test system: Escherichia coli NIHJ-JC-2; experiment: Antibacterial activity, agar-dilution MIC, organism No. 5; conditions: Escherichia coli, NIHJJC2; Organism No. 5, bouillon-agar; read-out: Minimum Inhibitory Concentration
Summary of the method: as §1

[5] = test system: Pseudomonas aeruginosa IFO 3445; experiment: Antibacterial activity, agar-dilution MIC, organism No. 15; conditions: Pseudomonas aeruginosa, IFO3445; Organism No. 15, bouillon-agar; read-out: Minimum Inhibitory Concentration
Summary of the method: as §1

[6] = test system: Escherichia coli K12 C600 IAM 1264; experiment: Antibacterial activity, agar-dilution MIC, organism No. 6; conditions: Escherichia coli, IAM1264; Organism No. 6, bouillon-agar; read-out: Minimum Inhibitory Concentration
Summary of the method: as §1

[7] = test system: Staphylococcus aureus Terajima; experiment: Antibacterial activity, agar-dilution MIC, organism No. 2; conditions: Staphylococcus aureus; Organism No. 2, bouillon-agar; read-out: Minimum Inhibitory Concentration
Summary of the method: as §1

[8] = test system: Serratia marcescens IAM 1184; experiment: Antibacterial activity, agar-dilution MIC, organism No. 13; conditions: Serratia marcescens, IAM1184; Organism No. 13, bouillon-agar; read-out: Minimum Inhibitory Concentration
Summary of the method: as §1

Enterobacter cloacae 963 = experiment: Antibacterial activity, agar-dilution MIC, organism No. 24; conditions: Enterobacter cloacae, 963; Organism No. 24, bouillon-agar; read-out: Minimum Inhibitory Concentration
Summary of the method: as §1

[9] = test system: Salmonella paratyphi-A 1015; experiment: Antibacterial activity, agar-dilution MIC, organism No. 10; conditions: Salmonella enterica, PARATYPHI, read-out: Minimum Inhibitory Concentration
Summary of the method: as §1

[10] = test system: Salmonella enteritidis G 14; experiment: Antibacterial activity, agar-dilution MIC, organism No. 12; conditions: Salmonella enterica, ENTERITIDIS; Organism No. 12, bouillon-agar; read-out: Minimum Inhibitory Concentration
Summary of the method: as §1

Proteus vulgaris HX-19 = experiment: Antibacterial activity, agar-dilution MIC, organism No. 21; conditions: Proteus vulgaris, HX19; Organism No. 21, bouillon-agar; read-out: Minimum Inhibitory Concentration
Summary of the method: as §1

[11] = test system: Streptococcus faecium IFO 3826; experiment: Antibacterial activity, agar-dilution MIC, organism No. 27; conditions: Enterococcus faecium, IFO3826; Organism No. 27, bouillon-agar; read-out: Minimum Inhibitory Concentration
Summary of the method: as §1

[12] = test system: Candida albicans IAM 4905; experiment: Antifungal activity, agar-dilution MIC, organism No. 29; conditions: Candida albicans, IAM4905; Organism No. 29, bouillon-agar; read-out: Minimum Inhibitory Concentration
Summary of the method: as §1

[13] = test system: Streptococcus pyogenes IFO 3340; experiment: Antibacterial activity, agar-dilution MIC, organism No. 26; conditions: Streptococcus pyogenes, IFO3340; Organism No. 26, bouillon-agar; read-out: Minimum Inhibitory Concentration
Summary of the method: as §1

[14] = test system: Enterobacter aerogenes ATCC 13048; experiment: Antibacterial activity, agar-dilution MIC, organism No. 23; conditions: Klebsiella aerogenes, ATCC13048; Organism No. 23, bouillon-agar; read-out: Minimum Inhibitory Concentration
Summary of the method: as §1

[15] = test system: Pseudomonas aeruginosa PAO 1; experiment: Antibacterial activity, agar-dilution MIC, organism No. 17; conditions: Pseudomonas aeruginosa, PAO1; Organism No. 17, bouillon-agar; read-out: Minimum Inhibitory Concentration
Summary of the method: as §1

[16] = test system: Salmonella typhimurium IID 971; experiment: Antibacterial activity, agar-dilution MIC, organism No. 8; conditions: Salmonella enterica; Organism No. 8, bouillon-agar; read-out: Minimum Inhibitory Concentration
Summary of the method: as §1

[17] = test system: Proteus morganii IFO 3848; experiment: Antibacterial activity, agar-dilution MIC, organism No. 18; conditions: Morganella morganii, IFO3848; Organism No. 18, bouillon-agar; read-out: Minimum Inhibitory Concentration
Summary of the method: as §1

[18] = test system: Klebsiella pneumoniae PCI-602; experiment: Antibacterial activity, agar-dilution MIC, organism No. 7; conditions: Klebsiella pneumoniae, PCI602; Organism No. 7, bouillon-agar; read-out: Minimum Inhibitory Concentration
Summary of the method: as §1

[19] = test system: Micrococcus luteus ATCC 9341; experiment: Antibacterial activity, agar-dilution MIC, organism No. 25; conditions: Micrococcus luteus, ATCC9341; Organism No. 25, bouillon-agar; read-out: Minimum Inhibitory Concentration
Summary of the method: as §1

[20] = test system: Staphylococcus aureus MS 353; experiment: Antibacterial activity, agar-dilution MIC, organism No. 3; conditions: Staphylococcus aureus, MS353; Organism No. 3, bouillon-agar; read-out: Minimum Inhibitory Concentration
Summary of the method: as §1

[21] = test system: Salmonella shottmuelleri 8006; experiment: Antibacterial activity, agar-dilution MIC, organism No. 11; conditions: Salmonella, 8006; Organism No. 11, bouillon-agar; read-out: Minimum Inhibitory Concentration
Summary of the method: as §1

Salmonella typhi 901 = experiment: Antibacterial activity, agar-dilution MIC, organism No. 9; conditions: Salmonella enterica, TYPHI, read-out: Minimum Inhibitory Concentration
Summary of the method: as §1

[22] = test system: Mycoplasma pneumoniae IID817; experiment: Antimycoplasmal activity, MIC by phenol red colour change, organism No. 28; conditions: Mycoplasma, IID817; Organism No. 28, PPLO broth + 1% glucose, 37° C.; read-out: Minimum Inhibitory Concentration (MIC)
Experimental: Mycoplasma pneumoniae IID817 was used as the test microorganism in a culture medium prepared by adding 1% of glucose to "PPLO broth (manufactured by Difco Co.) liquid culture medium" at 37° C. with phenol red as an indicator, thereby culturing the test microorganism.

[23] = test system: Streptococcus pyogenes Cook; experiment: Antibacterial activity, agar-dilution MIC, organism No. 4; conditions: Streptococcus pyogenes; Organism No. 4, bouillon-agar; read-out: Minimum Inhibitory Concentration
Summary of the method: as §1

[24] = test system: Staphylococcus aureus FDA 209PJc-1; experiment: Antibacterial activity, agar-dilution MIC, organism No. 1; conditions: Staphylococcus aureus, FDA209PJC1; Organism No. 1, bouillon-agar; read-out: Minimum Inhibitory Concentration
Summary of the method: as §1

[25] = test system: Pseudomonas aeruginosa NCTC 10490; experiment: Antibacterial activity, agar-dilution MIC, organism No. 16; conditions: Pseudomonas aeruginosa, NCTC10490; Organism No. 16, bouillon-agar; read-out: Minimum Inhibitory Concentration
Summary of the method: as §1

[26] = test system: Aspergillus niger IFO 6342; experiment: Antifungal activity, agar-dilution MIC, organism No. 30; conditions: Aspergillus niger, IFO6342; Organism No. 30, bouillon-agar; read-out: Minimum Inhibitory Concentration
Summary of the method: as §1

SMILES	MIC [1] [µg/mL]	MIC [2] [µg/mL]	MIC (Proteus vulgaris OX-19) [µg/mL]	MIC [3] [µg/mL]	MIC [4] [µg/mL]	MIC [5] [µg/mL]	MIC [6] [µg/mL]	MIC [7] [µg/mL]	MIC [8] [µg/mL]	MIC (Enterobacter cloacae 963) [µg/mL]	MIC [9] [µg/mL]	MIC [10] [µg/mL]	MIC (Proteus vulgaris HX-19) [µg/mL]	MIC [11] [µg/mL]	MIC [12] [µg/mL]	MIC [13] [µg/mL]	MIC [14] [µg/mL]	MIC [15] [µg/mL]	MIC [16] [µg/mL]	MIC [17] [µg/mL]	further results
[C-]#[N+]C12CC3(/C=C/C(=O)Nc4ccccc4OC)OC3C1O2 (stereo not drawn) [compound 55]	> 200	> 200	6.25 (≈ 21 µM)	25 (≈ 83.8 µM)	200 (≈ 670 µM)	> 200	200 (≈ 670 µM)	3.13 (≈ 10.5 µM)	> 200	> 200	12.5 (≈ 41.9 µM)	12.5 (≈ 41.9 µM)	< 0.05	200 (≈ 670 µM)	3.13 (≈ 10.5 µM)	6.25 (≈ 21 µM)	> 200	> 200	50 (≈ 168 µM)	6.25 (≈ 21 µM)	MIC [18]: 0.39 µg/mL (≈ 1.31 µM); MIC [19]: < 0.05 µg/mL; MIC [20]: 0.78 µg/mL (≈ 2.61 µM); MIC [21]: 3.13 µg/mL (≈ 10.5 µM); MIC (Salmonella typhi 901): 25 µg/mL (≈ 83.8 µM); MIC [22]: < 0.2 µg/mL; MIC [23]: 200 µg/mL (≈ 670 µM); MIC [24]: 1.56 µg/mL (≈ 5.23 µM); MIC [25]: > 200 µg/mL; MIC [26]: 12.5 µg/mL (≈ 41.9 µM)
[C-]#[N+]C12CC3(/C=C/C(=O)Nc4cccc(O)c4)OC3C1O2 (stereo not drawn) [compound 57]	6.25 (≈ 22 µM)	3.13 (≈ 11 µM)	1.56 (≈ 5.49 µM)	6.25 (≈ 22 µM)	12.5 (≈ 44 µM)	> 200	12.5 (≈ 44 µM)	6.25 (≈ 22 µM)	12.5 (≈ 44 µM)	100 (≈ 352 µM)	3.13 (≈ 11 µM)	3.13 (≈ 11 µM)	0.78 (≈ 2.74 µM)	25 (≈ 87.9 µM)	50 (≈ 176 µM)	3.13 (≈ 11 µM)	> 200	> 200	12.5 (≈ 44 µM)	1.56 (≈ 5.49 µM)	MIC [18]: 1.56 µg/mL (≈ 5.49 µM); MIC [19]: 0.1 µg/mL (≈ 0.352 µM); MIC [20]: 1.56 µg/mL (≈ 5.49 µM); MIC [21]: 1.56 µg/mL (≈ 5.49 µM); MIC (Salmonella typhi 901): 3.13 µg/mL (≈ 11 µM); MIC [22]: < 0.2 µg/mL; MIC [23]: 12.5 µg/mL (≈ 44 µM); MIC [24]: 1.56 µg/mL (≈ 5.49 µM); MIC [25]: > 200 µg/mL; MIC [26]: 50 µg/mL (≈ 176 µM)
[C-]#[N+]C12CC3(/C=C/C(=O)Nc4ccccc4O)OC3C1O2 (stereo not drawn) [compound 58]	12.5 (≈ 44 µM)	1.56 (≈ 5.49 µM)	0.78 (≈ 2.74 µM)	12.5 (≈ 44 µM)	12.5 (≈ 44 µM)	> 200	12.5 (≈ 44 µM)	3.13 (≈ 11 µM)	12.5 (≈ 44 µM)	100 (≈ 352 µM)	1.56 (≈ 5.49 µM)	3.13 (≈ 11 µM)	0.78 (≈ 2.74 µM)	12.5 (≈ 44 µM)	12.5 (≈ 44 µM)	3.13 (≈ 11 µM)	> 200	> 200	6.25 (≈ 22 µM)	1.56 (≈ 5.49 µM)	MIC [18]: 0.78 µg/mL (≈ 2.74 µM); MIC [19]: 0.2 µg/mL (≈ 0.704 µM); MIC [20]: 3.13 µg/mL (≈ 11 µM); MIC [21]: 1.56 µg/mL (≈ 5.49 µM); MIC (Salmonella typhi 901): 3.13 µg/mL (≈ 11 µM); MIC [22]: < 0.2 µg/mL; MIC [23]: 12.5 µg/mL (≈ 44 µM); MIC [24]: 3.13 µg/mL (≈ 11 µM); MIC [25]: > 200 µg/mL; MIC [26]: 12.5 µg/mL (≈ 44 µM)
[C-]#[N+]C12CC3(/C=C/C(=O)Nc4ccc(N)cc4)OC3C1O2 (stereo not drawn) [compound 59]	> 200	200 (≈ 706 µM)	1.56 (≈ 5.51 µM)	12.5 (≈ 44.1 µM)	25 (≈ 88.2 µM)	> 200	25 (≈ 88.2 µM)	25 (≈ 88.2 µM)	200 (≈ 706 µM)	> 200	6.25 (≈ 22.1 µM)	6.25 (≈ 22.1 µM)	1.56 (≈ 5.51 µM)	100 (≈ 353 µM)	12.5 (≈ 44.1 µM)	6.25 (≈ 22.1 µM)	> 200	> 200	12.5 (≈ 44.1 µM)	3.13 (≈ 11 µM)	MIC [18]: 3.13 µg/mL (≈ 11 µM); MIC [19]: 0.78 µg/mL (≈ 2.75 µM); MIC [20]: 6.25 µg/mL (≈ 22.1 µM); MIC [21]: 6.25 µg/mL (≈ 22.1 µM); MIC (Salmonella typhi 901): 6.25 µg/mL (≈ 22.1 µM); MIC [22]: < 0.2 µg/mL; MIC [23]: 50 µg/mL (≈ 176 µM); MIC [24]: 6.25 µg/mL (≈ 22.1 µM); MIC [25]: > 200 µg/mL; MIC [26]: 12.5 µg/mL (≈ 44.1 µM)
